Results from patent US20250387391A1, “A SOLUBLE GUANYLAT CYCLASE ACTIVATOR FOR TREATING CHRONIC VASCULAR DYSFUNCTION” (Charité - Universitätsmedizin Berlin, priority 2022, published 2025).
Where two headings read alike, the source gives them in different places.

Legend:
[1] = tested on: liver fibrosis in two rat models; settings: cited from earlier work
patients with ADHF = settings: intravenously administered; cited from earlier work
platelet aggregation = settings: via stimulation of cGMP synthesis; cited from earlier work
isolated sGC = settings: cited from earlier work
intraocular pressure = settings: animal models; cited from earlier work
[2] = in vivo; cited from earlier work
[3] = tested on: subjects with heart failure with reduced ejection fraction (HfrEF); settings: initial dose 2.5 mg, titrated to 10 mg at two-week intervals; cited from earlier work
healthy subjects = settings: cited from earlier work
NT-proBNP = settings: cited from earlier work
[4] = in vivo; cited from earlier work; remark: listed apart in the source
[5] = tested on: post-infectious ME/CFS patients
[6] = tested on: endothelial dysfunction (ED) models; settings: preclinical ED models and HF patients; cited from earlier work
sGC = settings: cited from earlier work
patient with ME/CFS = settings: single patient, history of Giardia Lamblia infection, ME/CFS for 10 years; cited from earlier work
[7] = preclinical species; cited from earlier work
[8] = humans; cited from earlier work
[9] = tested on: ZSF1 rat model of type 2 diabetes mellitus (T2DM)-induced nephropathy; settings: cited from earlier work
[10] = Vericiguat Pool (2.5 mg, 2.5 to 5 mg, 2.5 to 10 mg groups)

Structure (SMILES): O=C(O)CCCCN(CCc1cc(F)ccc1OCc1ccc(-c2ccc(C(F)(F)F)cc2)cc1)Cc1ccc(C(=O)O)cc1 [BAY 60-2770, 4-({(4-carboxy-butyl)[2-(5-fluoro-2-{[4′-(trifluoromethyl)biphenyl-4-yl]methoxy}phenyl)ethyl]amino}methyl)benzoic acid]
- Liver fibrosis [1]: attenuates liver fibrosis

Structure (SMILES): O=C(O)CCCCN(CCc1ccccc1OCc1ccc(CCc2ccccc2)cc1)Cc1ccc(C(=O)O)cc1 [Cinaciguat]
- Hemodynamic effect (patients with ADHF): potent unloading of the heart with arterial vasodilation

Structure (SMILES): OCc1ccc(-c2nn(Cc3ccccc3)c3ccccc23)o1 [YC-1]
- Platelet aggregation (platelet aggregation): inhibiting platelet aggregation
- Effect on sGC when combined with NO-releasing compounds (isolated sGC): strong synergistic effect
- sGC stimulation after oxidation or removal of the prosthetic heme moiety (isolated sGC): loss of stimulation

Structure (SMILES): Cc1cc(C2CCN(C(=O)C3CC3)CC2)ccc1NC1CCc2cccc(-c3cccc(-n4ncc(C(=O)O)c4C)n3)c21 (stereo not shown) [MGV354]
- Intraocular pressure (intraocular pressure): significantly lowered intraocular pressure

Structure (SMILES): Fc1ccccc1Cc1nc(-c2nc(C(F)(F)F)n[nH]2)cn2ccnc12 [CY6463]
- Crossing of the blood-brain barrier [2]: readily crosses the blood-brain barrier

Structure (SMILES): COC(=O)Nc1c(N)nc(-c2nn(Cc3ccccc3F)c3ncc(F)cc23)nc1N [Vericiguat]
- Efficacy in terms of cardiovascular mortality and HF hospitalization [3]: superior to placebo
- PK interaction profile (healthy subjects; estimated in in vitro studies, confirmed in healthy subjects): low
- Severity of most treatment-emergent adverse events (healthy subjects; human, in vivo): mild-to-moderate severity
- Tolerability in clinical studies (healthy subjects; human, in vivo): well-tolerated
- Difference of Means vs Placebo - log scale, change in log transformed NT-proBNP from baseline to week 12 (NT-proBNP; 1.25 mg): 0.0151 log [pg/mL]
- Ratio of Geometric Means vs Placebo - Back Transformed, NT-proBNP baseline to week 12 (NT-proBNP; 1.25 mg): 1.015
- Reduction in NT-proBNP at 12 weeks compared to placebo (NT-proBNP; 2.5 mg titrated at two-week intervals to 10 mg, p=0.0483): greatest reduction
- Difference of Means vs Placebo - log scale, change in log transformed NT-proBNP from baseline to week 12 (NT-proBNP; 2.5 mg): −0.0396 log [pg/mL]
- Ratio of Geometric Means vs Placebo - Back Transformed, NT-proBNP baseline to week 12 (NT-proBNP; 2.5 mg): 0.961
- Difference of Means vs Placebo - log scale, change in log transformed NT-proBNP from baseline to week 12 (NT-proBNP; 2.5 to 5 mg): −0.0731 log [pg/mL]
- Ratio of Geometric Means vs Placebo - Back Transformed, NT-proBNP baseline to week 12 (NT-proBNP; 2.5 to 5 mg): 0.930
- Difference of Means vs Placebo - log scale, change in log transformed NT-proBNP from baseline to week 12 (NT-proBNP; 2.5 to 10 mg): −0.2494 log [pg/mL]
- Ratio of Geometric Means vs Placebo - Back Transformed, NT-proBNP baseline to week 12 (NT-proBNP; 2.5 to 10 mg): 0.779
- Difference of Means vs Placebo - log scale, change in log transformed NT-proBNP from baseline to week 12 (NT-proBNP; [10]): −0.1220 log [pg/mL]
- Ratio of Geometric Means vs Placebo - Back Transformed, NT-proBNP baseline to week 12 (NT-proBNP; [10]): 0.885
- Secondary analysis: reduction of NT-proBNP at 12 weeks (NT-proBNP; across vericiguat doses): dose-response relationship
- Primary efficacy endpoint, change from baseline in log-transformed NT-proBNP vs placebo (NT-proBNP; pooled vericiguat group, 12 weeks): not significantly different
- Risk of anemia as side effect [4]: 1.9%
- Cognitive function ([5]; 1st patient): improved
- Sensitivity to light and noise ([5]; 1st patient): less sensitivity to light and noise
- Fatigue ([5]; 1st patient (ME/CFS triggered by COVID), 5 mg): improved
- Activity without getting PEM ([5]; 1st patient, 5 mg): much more activity was possible without getting PEM
- Quality of life, according to the patient ([5]; 2nd patient): significantly improved
- Effect of treatment (mainly cognitive) ([5]; 2nd patient (postinfectious ME/CFS, Bell of 20), 2.5 mg): only a minor positive effect
- Cognitive ability ([5]; 2nd patient, 5 mg, over a period of a few weeks): increase in cognitive ability
- Feeling of being sick ([5]; 2nd patient, compared to prior to treatment): reduced
- Headaches ([5]; 2nd patient, before medication about 3 days a week): almost completely disappeared
- Ability for cognitive work without triggering PEM ([5]; 2nd patient, increased from 1 h): more than 2 hours
- Headaches ([5]; 3rd patient): disappeared
- Muscle fasciculation ([5]; 3rd patient): decreased
- Sensitivity to noise ([5]; 3rd patient): improved
- Fatigue ([5]; 3rd patient (ME/CFS triggered by COVID), 2 weeks of 5 mg): improved
- Ability to work ([5]; 3rd patient, increased from 1): 2 to 3 h
- Drop in blood pressure ([5]; human, in vivo): no significant drop in blood pressure
- Effect on blood pressure ([5]; human, in vivo): almost no effect on blood pressure
- Tolerability ([5]; human, in vivo): very good
- Vascular function [6]: restores vascular function

Structure (SMILES): [N]=O [NO, nitric oxide]
- Increase of sGC activity (sGC): about 200 fold

Structure (SMILES): COC(=O)N(C)c1c(N)nc(-c2nn(Cc3ccccc3F)c3ncccc23)nc1N [Riociguat]
- Risk of anemia as side effect [4]: 7.8%
- Symptoms of ME/CFS (patient with ME/CFS): some improvement in symptoms

Structure (SMILES): OC(CNc1nc(-c2cc(-c3ccon3)n(Cc3ccccc3F)n2)ncc1F)(C(F)(F)F)C(F)(F)F [Praliciguat]
- Clearance route [7]: mainly hepatic clearance
- Half-life [7]: long half-life
- Tissue distribution [7]: extensive tissue distribution
- Pharmacokinetic half-life [8]: consistent with QD dosing

Structure (SMILES): Cc1ccc(OCc2ccc(C(=O)N3CCCCC3)cc2C)c(-c2csc(C3CC4CCC(C3)C4C(=O)O)n2)c1 (stereo not shown) [BI 703704]
- In vivo activity [9]: displaying in vivo activity
